# Measured values taken from US20250163387A1, “HUMAN PITUITARY NEUROENDOCRINE TUMOR ORGANOIDS AND METHODS OF MAKING AND USING THE SAME” (ARIZONA BOARD OF REGENTS OF THE UNIVERSITY OF ARIZONA, A …, priority 2022, published 2025).
# Legend:
# macroadenomas = settings: patients with macroadenomas; relacorilant for three months; cited from earlier work
# iPSC^USP48MV organoids [1] = experiment: Spectral flow cytometry (SSTR2, SSTR5, ACTH, zombie); format: cell-based, human; settings: Rela 500 nM, Mife 500 nM
# Procedure: (§1) The multicolor flow cytometry panel was designed using the Cytek®Full Spectrum Viewer online tool to calculate the similarity index. The organoids were harvested in cold SFDM media and centrifuged at 400×g for 5 minutes. Supernatant was discarded and organoids were dissociated to single cells using Accutase® (Thermo Fisher Scientific 00-4555-56). The enzymatic reaction was stopped using prewarmed DPBS and cells were then centrifuged at 400×g for 5 minutes and incubated with fluorochrome-conjugated/unconjugated primary surface or cytoplasmic antibodies at 4° C. for 30 minutes. Cells were then washed with Cell Staining Buffer (BioLegend #420-201) and incubated with secondary antibodies at 4° C. for 30 minutes. Cells were fixed using Cytofix/Cytoperm™ Fixation/Permeabilization Solution (BD Biosciences #554714) at 4° C. for 20 minutes, followed by washing with Fixation/Permeabilization wash buffer. Cells were then labeled with fluorochrome-conjugated/unconjugated intracellular primary antibodies at 4° C. for 30 minutes, washed and incubated with secondary antibodies at 4° C. for 30 minutes. Cells resuspended in cell staining buffer and fluorescence measured using the Cytek Aurora 5 Laser Spectral Flow Cytometer. An unstained cell sample was fixed and used as reference control. UltraComp eBeads™, Compensation Beads (Thermo Fisher Scientific #01-2222-42) were stained with the individual antibodies and used as single stain control for compensation and gating. Data was acquired using the Cytek™ Aurora and analyzed using Cytobank software (Beckman Coulter, Indianapolis, IN).
# hPITO37 = experiment: as above; format: cell-based, human; settings: Mife 2.85 nM
# Procedure: as §1
# hPITO39 = experiment: Nuclear Morphometric Analysis (NII); format: cell-based, human; settings: compared to pasireotide and ketoconazole
# Procedure: Nuclear Morphometric Analysis (NMA) using treated organoids was performed based on a published protocol that measures cell viability based on the changes in nuclear morphology of the cells using nuclear stain Hoechst or DAPI [30]. Images of organoid nuclei were analyzed using the ImageJ Nuclear Irregularity Index (NII) plugin for key parameters that included cell area, radius ratio, area box, aspect, and roundness. Using the published spreadsheet template, the NII of each cell was calculated with the following formula: NII=Aspect−Area Box+Radius Ratio+Roundness. The area vs NII of vehicle-treated cells were plotted as a scatter plot using the template and considered as the normal cell nuclei. The same plots were generated for each condition, and the NII and area of treated cells were compared to the normal nuclei, and classified as one of the following NMA populations: Normal (N; similar area and NII), Mitotic (S; similar area, slightly higher NII), Irregular (I; similar area, high NII), Small Regular (SR; apoptotic, low area and NII), Senescent (LR; high area, low NII), Small Irregular (SI; low area, high NII), or Large Irregular (LI; high area, high NII). […] The percentage of cells in each NII classification category were calculated and plotted as a histogram using GraphPad Prism. […]
# iPSC^USP48MV organoids [2] = experiment: Proliferation by EdU uptake; format: cell-based, human; settings: drug alone, 500 nM
# SSTR2 = experiment: Differential expression of SSTR2 in iPSC generated pituitary tumor organoids; format: cell-based, human
smiles,measurement,setting,value
CC#C[C@]1(O)CC[C@H]2[C@@H]3CCC4=CC(=O)CCC4=C3[C@@H](c3ccc(N(C)C)cc3)C[C@@]21C [Mifepristone],tumor (macroadenoma) regression,macroadenomas,have not been observed
same,ACTH positive cells,iPSC^USP48MV organoids [1]; Pas 100 nM,significant induction
same,cell death (Zombie positive cells),iPSC^USP48MV organoids [1]; Pas 100 nM,not observed
same,percentage of SSTR2 positive cells,iPSC^USP48MV organoids [1]; vs Veh,significant increase
same,percentage of SSTR5 positive cells,iPSC^USP48MV organoids [1]; vs Veh,significant increase
same,number of ACTH expressing cells,hPITO37,significantly increased
same,cell death (Zombie positive cells),"hPITO37; Pas 837.5 nM, Rela 382 nM",not observed
same,percentage of SSTR2 positive cells,"hPITO37; Rela 382 nM, vs Veh",significant increase
same,percentage of SSTR5 positive cells,"hPITO37; Rela 382 nM, vs Veh",significant increase
same,Apoptosis by nuclear morphometric analysis,hPITO39,induced significant apoptosis
same,cell proliferation (EdU uptake),iPSC^USP48MV organoids [2],significant increase
same,expression of SSTR2,"SSTR2; iPSC organoids (ctrl, USP48MI, USP48MV, USP8), 500 nM, vs vehicle",significant induction
same,differential expression of SSTR2,"SSTR2; iPSC^ctrl organoids, drug alone (Mife 500 nM, GANT 5 uM, Keto 10 uM, Dexa 100 nM)",significantly induced
